Earlier results as cited in patent US20040192601A1, “Lipid binding molecules and methods of use” (priority 2002, published 2004).

Tested on: PI3K
Settings: W7 used at 100 μM; stated as a property of the calmodulin inhibitor

In the case of `NCCCCCCNS(=O)(=O)c1cccc2c(Cl)cccc12` [W7], the “Inhibition of PI3K activity” value is given as “does not inhibit PI3K activity”.
